Data reported in patent publication US9586963B2 (GENFIT, priority 2011, dated 2017).

Target: T1, Rev-Erb alpha (Homo sapiens, UniProt P20393)
T1 sequence (P20393 284-614 limits assumed): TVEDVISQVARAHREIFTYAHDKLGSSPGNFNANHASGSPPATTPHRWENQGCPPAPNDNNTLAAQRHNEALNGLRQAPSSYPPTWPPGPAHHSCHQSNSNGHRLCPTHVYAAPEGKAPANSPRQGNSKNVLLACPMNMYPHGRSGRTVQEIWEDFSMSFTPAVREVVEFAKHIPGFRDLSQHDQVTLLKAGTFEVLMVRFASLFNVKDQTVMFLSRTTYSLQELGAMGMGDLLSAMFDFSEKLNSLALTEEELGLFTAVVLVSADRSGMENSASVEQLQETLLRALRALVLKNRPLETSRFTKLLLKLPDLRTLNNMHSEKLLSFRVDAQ
Experiment: M2H (mammalian two-hybrid) cellular activation assay of Rev-Erb alpha
Type: cell-based
Conditions: M2H assay, HEK293 cells; for EC50: Gal4-Rev-Erb alpha / VP16-NCoR, luciferase reporter; for Emax: relative to DMSO, at the tested dose, read-out: TOP activation
Protocol: In this system, Rev-Erb alpha or Rev-Erb beta is expressed as a fusion to the Gal4 DNA-binding domain and the cofactor NCoR is expressed as a fusion to the activation domain of the Herpes Simplex Virus tegument protein VP16. These fusion proteins were included in plasmids at a concentration of 1 μg/μL. The pBS-SK+ vector was added to the preparation to adjust the DNA quantity to a fixed value for each condition.
The transfection mix (Jet-PEI protocol, Polyplus transfection) comprised: • 3 mL of Jet PEI Mix (180 μL Jet-Pei and NaCl at 150 mM) and • 3 mL of the DNA Mix or of the DNA Mix control (wherein the Gal4-Rev-Erb alpha plasmid was replaced by a pGal4phi plasmid).
DNA Mix comprised 1.2 mL of DNA and 1.8 mL of NaCl at 150 mM with, in a T225 flask: • 90 ng of Gal4-Rev-Erb alpha, or 90 ng of Gal4-Rev-Erb beta, • 4500 ng of VP16-NCoR, • 27000 ng of Gal4-RE and • 13410 ng of pBS-SK+. Cells
HEK293 cells were cultured in DMEM (Invitrogen 41965) comprising 10% FBS, P/S, 1% glutamine, 1% pyruvate (Invitrogen 11360) and 1% amino acids (Invitrogen 11140). Cells were then batch co-transfected with plasmid vectors (described in the table above) using as Jet-PEI as reagent (Polyplus) following the protocol specified below.
The 6 mL-transfection mix was transferred in a T225 flask. HEK293 cells were then added at a concentration of 12 Millions of cells for 54 mL of medium (DMEM comprising 10% FBS and 1% P/S). Cells incubated over-night at 37° C. and under 5% CO2.
This cell-based assay is performed using 384-well Greiner white plates (Reference 781080). After the incubation, cells were rinsed with PBS, trypsinized, centrifuged and resuspended in free-serum DMEM without phenol red (Invitrogen 31053). Cells were counted and adjusted to 0.5 Million per mL and plated at a concentration of 10,000 cells in 20 μL per well. They were incubated a minimum of 4 hours at 37° C. under 5% CO2. Cells were treated with 20 μL of the compound to analyze (concentration of 2× diluted in DMEM without FBS containing a maximum of 1% DMSO) and incubated over-night (18 hours, 37° C. and 5% CO2). Each compound has been tested at 6 different concentrations to depict a dose-effect allowing the measure of biochemical parameters such as EC50 and TOP activation (%).
Cells were incubated 30 minutes with 40 μL/well of Steady Glow (Promega) and luminescence was read with TECAN Genios Pro (100 ms/w). Four experiments were carried out for each compound.
Each compound has been tested at 6 different concentrations to depict a dose-effect allowing the measure of biochemical parameters such as EC50 and TOP activation (%).
The mammalian two-hybrid system (M2H) assay consists herein in studying the ability of compounds according to the invention to activate Rev-Erbalpha in cells and thus modulate the interaction with its corepressor. The interaction of the two proteins is assessed with the help of the Luciferase reporter gene. HEK293 cells were transfected with two gene constructions: Gal4-RE VP16-NCoR and Gal4-Rev-Erbalpha or with Gal4-RE, sVP16-NCoR and Gal4-Rev-Erb beta.
The ability of compounds according to the invention of activating Rev-Erbalpha alpha or Rev-Erb beta was assessed in the described cell-based assay. EC50 and TOP activation (%) were measured.

Compound | EC50 [µM] | Emax [%]
CN1CCN(Cc2ccc(C(F)(F)F)cc2Oc2ccc3nnc(Cl)n3n2)CC1 [Cpd.4-124, 3-chloro-6-(2-((4-methylpiperazin-1-yl)methyl)-5-(trifluoromethyl)phenoxy)-[1,2,4]triazolo[4,3-b]pyridazine] | > 6 | > 130
COc1ncc(-c2ccc(C(F)(F)F)cc2Oc2cc(C)c3nnc(Cl)n3n2)c(OC)n1 [Cpd.5-50, 3-chloro-6-(2-(2,4-dimethoxypyrimidin-5-yl)-5-(trifluoromethyl)phenoxy)-8-methyl-[1,2,4]triazolo[4,3-b]pyridazine] | 1 to 6 | –
Cc1ncccc1-c1ccc(C(F)(F)F)cc1Oc1ccc2nnc(Cl)n2n1 [Cpd.4-123, 3-chloro-6-(2-(2-methylpyridin-3-yl)-5-(trifluoromethyl)phenoxy)-[1,2,4]triazolo[4,3-b]pyridazine] | 0.1 to 1 | –
Fc1ncccc1-c1ccc(C(F)(F)F)cc1Oc1ccc2nnc(Cl)n2n1 [Cpd.4-78, 3-chloro-6-(2-(2-fluoropyridin-3-yl)-5-(trifluoromethyl)phenoxy)-[1,2,4]triazolo[4,3-b]pyridazine] | 0.1 to 1 | –
Cc1cc2nnc(Cl)n2nc1Oc1c(-c2cncnc2)ccc(C(F)(F)F)c1F [Cpd.5-31, 3-chloro-6-(2-fluoro-6-(pyrimidin-5-yl)-3-(trifluoromethyl)phenoxy)-7-methyl-[1,2,4]triazolo[4,3-b]pyridazine] | 1 to 6 | –
Cc1noc(C)c1-c1ccccc1Oc1ccc2nnc(Cl)n2n1 [Cpd.4-109, 3-chloro-6-(2-(3,5-dimethylisoxazol-4-yl)phenoxy)-[1,2,4]triazolo[4,3-b]pyridazine] | > 6 | > 130
Cc1ccc(-c2ccc(C(F)(F)F)cc2Oc2nn3c(Cl)nnc3c3ccccc23)cn1 [Cpd.5-18, 3-chloro-6-(2-(6-methylpyridin-3-yl)-5-(trifluoromethyl)phenoxy)-[1,2,4]triazolo[3,4-a]phthalazine] | 0.1 to 1 | –
COc1ccc(-c2cccc(Oc3ccc4nnc(Cl)n4n3)c2)cc1 [Cpd.3-7, 6-(4′-methoxy-biphenyl-3-yloxy)-3-chloro-[1,2,4]triazolo[4,3-b]pyridazine] | 1 to 6 | –
Fc1ccc2c(Oc3cc(C(F)(F)F)ccc3-c3ccccc3)nn3c(Cl)nnc3c2c1 [Cpd.5-2, 3-chloro-6-(4-trifluoromethyl-biphenyl-2-yloxy)-9-fluoro-[1,2,4]triazolo[3,4-a]phthalazine] | 0.1 to 1 | –
CN(CCc1ccccc1)Cc1ccc(Oc2ccc3nnc(Cl)n3n2)c(-c2ccccc2)c1 | 1 to 6 | –
CCOc1ccc(-c2ccc(C(F)(F)F)cc2Oc2ccc3nnc(Cl)n3n2)cn1 [Cpd.4-84, 3-chloro-6-(2-(6-ethoxypyridin-3-yl)-5-(trifluoromethyl)phenoxy)-[1,2,4]triazolo[4,3-b]pyridazine] | 1 to 6 | –
Clc1ccc(Oc2ccc(Cl)cc2Oc2ccc3nnc(Cl)n3n2)c(Cl)c1 [Cpd.4-114, 3-chloro-6-[5-chloro-2-(2,4-dichloro-phenoxy)-phenoxy]-[1,2,4]triazolo[4,3-b]pyridazine] | 0.1 to 1 | –

Continued, values first:

EC50 [µM] | Emax [%] | Compound
1 to 6 | – | Clc1nnc2ccc(Oc3cc(CNC4CC4)ccc3-c3ccccc3)nn12 [Cpd.4-178, 3-chloro-6-(4-cyclopropylaminomethylbiphenyl-2-yloxy)-[1,2,4]triazolo[4,3-b]pyridazine]
1 to 6 | – | O=[N+]([O-])c1ccc(Oc2ccc3nnc(Cl)n3n2)c(-c2ccccc2)c1 [Cpd.4-134, 3-chloro-6-(5-nitrobiphenyl-2-yloxy)-[1,2,4]triazolo[4,3-b]pyridazine]
1 to 6 | – | Clc1nnc2ccc(Oc3cc(CNCC4CCCCC4)ccc3-c3ccccc3)nn12 [Cpd.4-176, 3-chloro-6-(4-(cyclohexylmethyl)aminomethylbiphenyl-2-yloxy)-[1,2,4]triazolo[4,3-b]pyridazine]
> 6 | > 130 | Clc1nnc2ccc(Oc3cc(CNCC4CCCO4)ccc3-c3ccccc3)nn12 (stereo not shown) [Cpd.4-180]
0.1 to 1 | – | Cc1nc(-c2ccc(Oc3ccc4nnc(Cl)n4n3)c(-c3ccccc3)c2)no1 [Cpd.4-198, 3-chloro-6-(4-(5-methyl-1,2,4-oxadiazol-3-yl)-2-(phenyl)phenoxy)-[1,2,4]triazolo[4,3-b]pyridazine]
> 6 | > 130 | Cn1cc(-c2ccc(C(F)(F)F)cc2Oc2ccc3nnc(Cl)n3n2)ccc1=O [Cpd.4-86, 5-(2-(3-chloro-[1,2,4]triazolo[4,3-b]pyridazin-6-yloxy)-4-(trifluoromethyl)phenyl)-1-methylpyridin-2(1H)-one]
0.1 to 1 | – | Oc1cccc(-c2ccc(C(F)(F)F)cc2Oc2ccc3nnc(Cl)n3n2)c1 [Cpd.4-37, 6-(3′-hydroxy-4-trifluoromethyl-biphenyl-2-yloxy)-3-chloro-[1,2,4]triazolo[4,3-b]pyridazine]
1 to 6 | – | OCc1ccc(-c2ccccc2)c(Oc2ccc3nnc(Cl)n3n2)c1 [Cpd.4-155, 3-chloro-6-(4-(hydroxymethyl)biphenyl-2-yloxy)-[1,2,4]triazolo[4,3-b]pyridazine]
1 to 6 | – | CS(=O)(=O)N1CCN(Cc2ccc(-c3ccccc3)c(Oc3ccc4nnc(Cl)n4n3)c2)CC1 [Cpd.4-182, 3-chloro-6-(4-(4-methanesulfonylpiperazin-1-ylmethyl)biphenyl-2-yloxy)-[1,2,4]triazolo[4,3-b]pyridazine]
0.1 to 1 | – | N#Cc1ccc(-c2ccccc2)c(Oc2ccc3nnc(Cl)n3n2)c1 [Cpd.4-169, 3-chloro-6-(4-cyanobiphenyl-2-yloxy)-[1,2,4]triazolo[4,3-b]pyridazine]
1 to 6 | – | CC(C)(C)OC(=O)NCc1ccc(-c2ccccc2)c(Oc2ccc3nnc(Cl)n3n2)c1 [Cpd.4-186, 3-chloro-6-(4-tertbutyloxycarbonylaminomethylbiphenyl-2-yloxy)-[1,2,4]triazolo[4,3-b]pyridazine]
> 6 | > 130 | CCN(CC)Cc1ccc(Oc2ccc3nnc(Cl)n3n2)c(-c2ccccc2)c1 [Cpd.4-157, 3-chloro-6-(5-diethylaminomethylbiphenyl-2-yloxy)-[1,2,4]triazolo[4,3-b]pyridazine]
1 to 6 | – | CC(=O)Nc1ccc(-c2ccccc2)c(Oc2ccc3nnc(Cl)n3n2)c1 [Cpd.4-49, 3-chloro-6-(4-acetamido-biphenyl-2-yloxy)-[1,2,4]triazolo[4,3-b]pyridazine]
0.1 to 1 | – | FC(F)(F)c1cccc(-c2ccccc2Oc2ccc3nnc(Cl)n3n2)c1 [Cpd.4-28, 6-(3′-trifluoromethyl-biphenyl-2-yloxy)-3-chloro-[1,2,4]triazolo[4,3-b]pyridazine]
1 to 6 | – | OCc1ccc(Oc2ccc3nnc(Cl)n3n2)c(-c2ccccc2)c1 [Cpd.4-66, 3-chloro-6-(5-hydroxymethyl-biphenyl-2-yloxy)-[1,2,4]triazolo[4,3-b]pyridazine]
0.1 to 1 | – | Clc1nnc2ccc(Oc3ccccc3-c3ccsc3)nn12 [Cpd.4-108, 3-chloro-6-(2-(thiophen-3-yl)phenoxy)-[1,2,4]triazolo[4,3-b]pyridazine]
1 to 6 | – | Clc1nnc2ccc(Oc3cc(CNC4CCCC4)ccc3-c3ccccc3)nn12 [Cpd.4-179, 3-chloro-6-(4-cyclopentylaminomethylbiphenyl-2-yloxy)-[1,2,4]triazolo[4,3-b]pyridazine]
